Experimental findings from paper PMC6605100 (Peptide science (Hoboken, N.J.), 2018) are described below.

Series [1] in a line: Peptide degradation assay in HeLa lysates, RP-HPLC. To be noted: 30 μM peptide, HeLa lysates 2 mg/mL, 10 mM Tris-HCl pH 7.6, 37°C, HPLC UV 442 nm.

Consider `N=C(N)NCCC[C@H](NC(=O)[C@H](CCCNC(=N)N)NC(=O)[C@H](CCCNC(=N)N)NC(=O)[C@H](CCC(N)=O)NC(=O)[C@H](CCCNC(=N)N)NC(=O)[C@H](CCCNC(=N)N)NC(=O)[C@H](CCCCN)NC(=O)[C@H](CCCCN)NC(=O)[C@H](CCCNC(=N)N)NC(=O)CNC(=O)[C@H](Cc1ccc(O)cc1)NC(=O)c1ccc2c(c1)C(=O)OC21c2ccc(O)cc2Oc2cc(O)ccc21)C(N)=O` [TAT], for which the “time within which the peptide was mostly degraded” value in series [1] is at most 30 min.

As for Ac-RWVKVpGOWIKQ-NH2 [WKWK], the “entry into intact cells (permeability)” value in the series with HeLa cells is listed as “found to enter intact HeLa cells”.
